Laboratory results published in patent US20090162425A1, “METHODS AND COMPOSITIONS FOR INHIBITING UNDESIRABLE CELLULAR PROLIFERATION BY TARGETED LIPOSOME DELIVERY OF ACTIVE AGENTS” (University of Tennessee Research Foundation, priority 2007, published 2009).

Columns and labels:
avidin = avidin (Gallus gallus, UniProt P02701); details: avidin-biotin interaction; cited from earlier work
[1] = tested on: C6 GFP flank glioma tumors; details: 2 mg/Kg paclitaxel administered systemically, flank model
[2] = tested on: C6 GFP intracranial glioma tumors; details: 2 mg/Kg paclitaxel administered systemically, intracranial model
[3] = in vivo; cited from earlier work
[4] = cited from earlier work

avidin, sequence (P02701 25-152): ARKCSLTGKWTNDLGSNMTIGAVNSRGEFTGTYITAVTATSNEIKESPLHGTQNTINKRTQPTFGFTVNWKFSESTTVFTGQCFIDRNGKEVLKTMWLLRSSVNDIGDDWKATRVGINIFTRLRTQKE

Row | gross deleterious effects (clinical monitoring and daily weights) [1] | gross deleterious effects (clinical monitoring and daily weights) [2] | SMILES | dissociation half-life (avidin) | drug bound to plasma proteins [3] | terminal half-life (mean) [3] [h] | terminal half-life (range) [3] [h] | log P [4]
1 | – | – | O=C(O)CCCC[C@@H]1SC[C@@H]2NC(=O)N[C@@H]21 [biotin] | about 89 days | – | – | – | –
2 | no gross deleterious effects | no gross deleterious effects | CC(=O)O[C@H]1C(=O)[C@@]2(C)[C@H]([C@H](OC(=O)c3ccccc3)[C@]3(O)C[C@H](OC(=O)[C@H](O)[C@@H](NC(=O)c4ccccc4)c4ccccc4)C(C)=C1C3(C)C)[C@]1(OC(C)=O)CO[C@@H]1C[C@@H]2O [paclitaxel] | – | More than 90% | 5 | 1.3 to 8.6 | 3.96
